According to patent US7446107B2, “Crystalline forms of conazoles and methods of making and using the same” (Transform Pharmaceuticals, Inc., priority 2002, dated 2008):

Columns and labels:
[1] = Hygroscopicity determination (humidity chambers); type: physicochemical; details: 75% relative humidity, 25° C., 8 hours
Experimental: The hygroscopicity profiles for a sample from each of vials 1-5, as well as cis-itraconazole free base, were determined by exposing a sample from each of vials 1-5 to four different environments of varying relative humidity (namely, 0%, 30%, 57%, and 75%), and incubating the samples in that environment for about 8 hours at room temperature (20-25° C.). The humidity chambers consisted of desiccators with desiccants/salt baths in the bottom, above which the open vials containing samples were suspended.
The relative hygroscopicity of each sample was determined using methods well known to one skilled in the pharmaceutical arts as reported in “Pharmaceutical Preformulation & Formulation: A Practical Guide From Candidate Drug Selection to Commercial Dosage Form,” Ed. Mark Gibson, published by IHS Health Group Co, p. 49 (2001), which is incorporated herein by reference in its entirety.

[2] = cited from earlier work
[3] = Solubility in pH 1 buffer (HPLC-UV); type: physicochemical
Experimental: Beginning with the longest time point, pH 1 buffer (1 N HCl adjusted to pH 1 using 1 N NaOH) was added to each of the wells containing samples until completion of the shortest time points. The samples were vigorously stirred throughout the experiment. At the end of the assay, the solution and solid states of all the samples were separated by centrifugation in a polyvinylidene fluoride 96-well filter plate for 2 minutes at 500 xg.
Approximately 30 μl of solution was collected from the solution state of each sample and diluted in 120 μl of methanol in glass vials. Aluminum caps were crimped on the vial tops to prevent evaporation of methanol.

[4] = Physical form after incubation in pH 1 buffer (PXRD); type: physicochemical; details: 2 hours, room temperature
Experimental: 70 μl of pH 1 buffer (1 N HCl adjusted to pH 1 using 1 N NaOH) was added to the same well. The sample was incubated at room temperature with vigorous mixing for 2 hours. At the end of the assay, the 384 well plate was centrifuged for 2 minutes at 500 xg and the supernatant was removed by aspiration.
The remaining solid state was analyzed by X-ray powder diffraction in a borosilicate tube, but otherwise using the same equipment, software, procedures, and parameters described in Example 1.

[5] = Solubility in THF (observation during synthesis); type: physicochemical; details: up to 70° C.
Excerpt: Thereafter, the vials were removed from the oven, the caps from all the bottles were removed, and the samples were allowed to evaporate in air under ambient conditions. Once significant amounts of solids were present in a sample, the remaining liquid in the sample was removed by pipetting out the liquid phase and using suction filtration with Whatman filter paper to rescue any solid that may have been dispersed in the liquid phase. The remaining solid in the liquid phase and the filtrate were dried in the vacuum oven (VWR Scientific, Model # 1400E) under vacuum for at least 12 hours. With regard to vial 3, the solid crashed out of solution as soon as the acid was added and never went into solution even at 70° C.; however, the solid in the sample was harvested in the same manner as the other samples.

Question: For CCC(C)n1ncn(-c2ccc(N3CCN(c4ccc(OCC5COC(Cn6cncn6)(c6ccc(Cl)cc6Cl)O5)cc4)CC3)cc2)c1=O.O=C(O)C(O)C(O)C(=O)O (racemic) [cis-itraconazole DL-tartrate], which relative hygroscopicity [1] is on record?
Answer: slightly hygroscopic (greater than 0.2% and less than 2% weight loss after incubation in 75% relative humidity at 25 °C for 8 hours)

Question: Which results are given for CCC(C)n1ncn(-c2ccc(N3CCN(c4ccc(OC[C@H]5CO[C@](Cn6cncn6)(c6ccc(Cl)cc6Cl)O5)cc4)CC3)cc2)c1=O (mixture of isomers) [cis-itraconazole free base, (±)cis-4-[4-[4-[4-[[2-(2,4-dichlorophenyl)-2-(1H-1,2,4-triazol-1-ylmethyl)-1,3-dioxolan-4-yl]methoxy]phenyl]-1-piperazinyl]phenyl]-2,4-dihydro-2-(1-methylpropyl)-3H-1,2,4-triazol-3-one, reference compound]?
Answer: solubility in water [2]: only very sparingly soluble in water; change of solubility with time ([3]; measured period up to 120 minutes): did not change over the measured period of time

Question: Which relative hygroscopicity [1] does the source give for CCC(C)n1ncn(-c2ccc(N3CCN(c4ccc(OCC5COC(Cn6cncn6)(c6ccc(Cl)cc6Cl)O5)cc4)CC3)cc2)c1=O.O=S(=O)(O)c1ccccc1 (stereo not drawn) [cis-itraconazole benzensulfonate] here?
Answer: hygroscopic (greater than 2% and less than 15% weight loss after incubation in 75% relative humidity at 25 °C for 8 hours)

Question: With CCC(C)n1ncn(-c2ccc(N3CCN(c4ccc(OCC5COC(Cn6cncn6)(c6ccc(Cl)cc6Cl)O5)cc4)CC3)cc2)c1=O.O=C(O)C=CC(=O)O (stereo not drawn) [cis-itraconazole fumaric acid co-crystal] as the compound, how does the “solid state form after incubation” value [4] read?
Answer: did not change form

Question: What about the relative hygroscopicity [1] of the same compound?
Answer: slightly hygroscopic (greater than 0.2% and less than 2% weight loss after incubation in 75% relative humidity at 25 °C for 8 hours)

Question: And the “solubility relative to free base” value ([3]; 15 minutes)?
Answer: at least 4 fold

Question: What about the “solubility relative to free base” value ([3]; 4 hours) of the same compound?
Answer: approximately 1.5 fold

Question: For CCC(C)n1ncn(-c2ccc(N3CCN(c4ccc(OCC5COC(Cn6cncn6)(c6ccc(Cl)cc6Cl)O5)cc4)CC3)cc2)c1=O.O=P(O)(O)O (stereo not drawn) [cis-itraconazole phosphate], which relative hygroscopicity [1] is on record?
Answer: slightly hygroscopic (greater than 0.2% and less than 2% weight loss after incubation in 75% relative humidity at 25 °C for 8 hours)

Question: With CCC(C)n1ncn(-c2ccc(N3CCN(c4ccc(OCC5COC(Cn6cncn6)(c6ccc(Cl)cc6Cl)O5)cc4)CC3)cc2)c1=O.O=S(=O)(O)O (stereo not drawn) [cis-itraconazole sulfate] as the compound, how does the relative hygroscopicity [1] read?
Answer: hygroscopic (greater than 2% and less than 15% weight loss after incubation in 75% relative humidity at 25 °C for 8 hours)

Question: And the “solubility in THF” value [5]?
Answer: insoluble or only slightly soluble in THF
